Laboratory results from US20110110916A1, “METHODS FOR TREATING AND/OR PREVENTING CARDIOMYOPATHIES BY ERK OR JNK INHIBITION” (priority 2008, published 2011).

Tests used:
HeLa cells = assay: ERK1/2 phosphorylation in HeLa cells treated with Emd and Lmna siRNAs; format: cell-based, human; conditions: 45 μM for 24 hours
Description: (§1) Human HeLa cells and mouse C2C12 cells were maintained in a 5% CO2 atmosphere at 37° C. The cells were cultured in Dulbecco's modified Eagle's medium supplemented with 10% calf bovine serum and 0.1% gentamicin.
(§2) One day before transfection, HeLa and C2C12 cells were trypsinized, diluted with fresh medium without antibiotics and transferred to 24-well plates. Transient transfection of siRNAs was carried out using Oligofectamine (Invitrogen) as recommended by the manufacturer. Cells were preincubated in 7.5 μl OPTIMEM 1 medium (Life Technologies) and 2 μl Oligofectamine per well for 5 minutes at room temperature. During the time of this incubation, 40 μl OPTIMEM 1 medium were mixed with 2.5 μl siRNA. The two mixtures were combined and incubated for 20 minutes at room temperature for complex formation. The entire mixture was added to the cells in one well resulting in a final concentration of […] for the siRNAs. […]
(§3) Proteins were separated by SDS-PAGE, transferred to nitrocellulose membranes and blotted with primary antibodies against ERK1/2 (Santa-Cruz), pERK1/2 (Cell Signaling), lamin A/C (Santa-Cruz), emerin (Novocatra), β-actin (Sant-Cruz) and Gapdh (Santa-Cruz). […] Band densities were calculated using Scion Image software (Scion Corporation) and normalized to the appropriate total extract to control for protein loading. […]

C2C12 cells = assay: ERK1/2 phosphorylation in C2C12 cells treated with Emd and Lmna siRNAs (immunoblot, ELISA); format: cell-based, mouse; conditions: 45 μM for 24 hours
Description: as §1, §2, §3

cyclooxygenase-1 = conditions: reference 137; cited from earlier work

## COc1cccc(-c2cc(=O)c3ccccc3o2)c1N [PD98059, 2-(2-amino-3-methoxyphenyl)-4H-1-benzopyran-4-one]
HeLa cells
  increase in pERK (immunoblot): reduced
C2C12 cells; C2C12 cells treated with Emd and Lmna siRNAs
  increase in pERK (immunoblot): reduced
C2C12 cells; siRNA-treated C2C12 cells (FIG. 20B)
  ERK1/2 phosphorylation (ELISA): Inhibition of ERK1/2
cyclooxygenase-1
  activity against cyclooxygenase-1: has activity
